Reference: patent US20060034889A1, “Biodegradable diblock copolymers having reverse thermal gelation properties and methods of use thereof” (MacroMed, Inc., priority 2004, published 2006)

Details: 30% by weight aqueous PLG-PEG diblock copolymer solutions or gels, 120 days, 5 °C and 37 °C

CC(=O)O[C@H]1C(=O)[C@@]2(C)[C@H]([C@H](OC(=O)c3ccccc3)[C@]3(O)C[C@H](OC(=O)[C@H](O)[C@@H](NC(=O)c4ccccc4)c4ccccc4)C(C)=C1C3(C)C)[C@]1(OC(C)=O)CO[C@@H]1C[C@@H]2O [paclitaxel]
drug intact after storage: greater than 85%
